According to PubChem BioAssay AID2305 (GlaxoSmithKline (GSK), 2010):
Several values for one entry are separate records, joined by “and”; a condition that tells them apart may be missing. Equal values may be shown once.

Tested on: P. falciparum 3D7 growth, pLDH absorbance
Assay: blood-stage malaria parasite growth potency – strain 3D7, dose response (AID 2305)

## Cc1ccc(C2CCN(CCCCNC(=O)c3ccc(NC(=O)c4ccc(Cl)cc4)cc3)CC2)c(OCC(F)(F)F)c1
  IC50: 280 nM

## CN(C(=O)Cc1ccc(Cl)c(Cl)c1)C1CCN(CCCCCNC(=O)/C=C/c2ccc(Cl)c(Cl)c2)CC1
  IC50: 740 nM

## c1cc(CNCCc2ccncc2)cc(-c2cccc(-c3nc4ccccc4[nH]3)c2)c1
  IC50: 150 nM

## CN(C)c1ccc(-c2ccc(C(=O)NC3CCN(Cc4ccc(C(C)(C)C)cc4)CC3)s2)cc1
  IC50: 970 nM

## CCn1ccc2c(N3CCCC3=O)cc(C(=O)N[C@@H](Cc3ccccc3)[C@H](O)CNC3CCCCC3)cc21
  IC50: 120 nM

## O=C(NC1CCN(Cc2ccccc2)CC1)c1ccc2c(=O)n(Cc3ccc(Cl)cc3)c(=S)[nH]c2c1
  IC50: 1000 nM

## O=C(Nc1ccc2c(c1)CCN2C1CCN(Cc2csc3ccccc23)C1)c1ccco1 (configuration not stated)
  IC50: 320 nM

## O=c1c2ccccc2[nH]c2cc(Cl)ccc12
  IC50: 870 nM

## CC(C)(CNCc1ccccc1)c1nc(-c2ccc(Cl)c(O)c2)c(-c2ccncc2)[nH]1
  IC50: 540 nM

## COc1ccc2nc3cc(Cl)ccc3c(Nc3ccc(O)c(CN4CC5CCC(CC5)C4)c3)c2c1
  IC50: 170 nM

## Cc1cccc2[nH]c(-c3ccc(-c4ccc(NC(=O)C(C)CN(C)C)cc4)s3)nc12 (configuration not stated)
  IC50: 410 nM

## Cc1cc(NN=Cc2ccc(Cl)cc2)c2ccc(F)cc2n1
  IC50: 760 nM

## O=S(=O)(Nc1cccc(CCN2CCC(N3CCCCC3)CC2)c1)c1cccc2ccccc12
  IC50: 940 nM

## COc1cc(OC)nc(-c2cccc(NC(=O)c3ccc4c(=O)n(CCN5CCCCC5)cnc4c3)c2)n1
  IC50: 740 nM

## COC(=O)c1ccc(NC(=O)Nc2cccc(CCNCc3ccccc3)c2)cc1
  IC50: 870 nM

## Cc1nc(C)c(CC(=O)Nc2cccc(-c3cccc(-c4nc5c(C)cccc5[nH]4)c3)c2)s1
  IC50: 750 nM

## O=C(Nc1ccc(CN2CCOCC2)cc1)c1ccc(-c2ccc(Cl)cc2)o1
  IC50: 860 nM

## COc1ccc(C=NNc2cc(C)nc3ccccc23)c(OC)c1
  IC50: 620 nM

## CCN(CCCN1CCCCC1)c1cc(C)nc(Nc2ccc(OC)cc2)n1
  IC50: 620 nM

## Cc1cnc(CCNC(=O)c2cc(-c3ccc(Cl)cc3)cs2)[nH]1
  IC50: 240 nM

## Cc1cc(C)c(NC(=O)NC2CCN(CCCCCNC(=O)/C=C/c3ccc(Cl)c(Cl)c3)C2)c(C)c1 (configuration not stated)
  IC50: 190 nM

## CCCCCCCCN1CCN(CCCCCCNc2c3ccccc3nc3ccccc23)CC1
  IC50: 160 nM

## CCCOc1cc(Cc2cnc(N)nc2N)cc(OC)c1OC
  IC50: 1170 nM

## CC(CN1CCN(C)CC1)C(=O)Nc1ccc(-c2csc(-c3nc4ccccc4[nH]3)c2)cc1 (configuration not stated)
  IC50: 840 nM

## O=C(Cc1ccc(NC(=O)c2ccc(O)c(-c3ccc(Cl)c(Cl)c3)c2)cc1)NCc1cccc(C(F)(F)F)c1
  IC50: 880 nM

## CCCCCN1CCCC(NS(=O)(=O)c2ccc(C(=O)Nc3ccc(C(F)(F)F)cc3)cc2)C1 (configuration not stated)
  IC50: 1630 nM

## COc1ccc(CNC2Cc3ccccc3C2)cc1-c1ccc(S(=O)(=O)NCCN2CCCC2)cc1
  IC50: 580 nM

## O=S(=O)(NCCN1CCCC1)c1ccc(-c2cccc(CNCc3ccc(F)cc3)c2)cc1
  IC50: 730 nM

## c1cc(Nc2nccc(-c3cnn4ncccc34)n2)cc(-c2cnco2)c1
  IC50: 690 nM

## CCn1c(Sc2ccc(C#N)c([N+](=O)[O-])c2)nnc1-c1cc(OC)cc(OC)c1
  IC50: 570 nM

## CC1(C)N=C(N)N=C(N)N1OCCNCc1ccc(Cl)cc1
  IC50: 160 nM

## CC(=O)N1N=C(c2ccccc2)Sc2c1nc(-c1ccc(Cl)cc1)n2C(C)=O
  IC50: 990 nM

## Cc1[nH]c2ccccc2c1C1=CCN(CCCCC2(C)C(=O)Nc3cccc(F)c32)CC1 (configuration not stated)
  IC50: 360 nM

## COc1ccc2nc(/C=C/c3cccc4ccc(C)nc34)[nH]c2c1
  IC50: 790 nM

## O=C(/C=C/c1ccc(Cl)c(Cl)c1)NCCCCCN1CCC(NC(=O)Nc2cc(F)cc(F)c2)CC1
  IC50: 790 nM

## Cc1ccc(Cn2nc(N3CCNCC3)ccc2=O)cc1NC(=O)Nc1ccc(-c2ccccc2)cc1
  IC50: 840 nM

## CCN(CC)CCN(Cc1ccc(-c2ccc(C(F)(F)F)cc2)cc1)C(=O)Cn1c(CCc2cccc(F)c2F)nc(=O)c2ccc(C)cc21
  IC50: 670 nM

## Cc1cc(N[C@@H](Cc2ccccc2)C(=O)Nc2ccccc2)nc(NCCc2cccnc2)n1
  IC50: 1340 nM

## Cc1cccc2[nH]c(-c3cccc(-c4cccc(NC(=O)Nc5ccsc5)c4)c3)nc12
  IC50: 170 nM

## CC1(C)[C@H]2C=C(CN3CCC(NC(=O)Nc4ccc(Cl)c(Cl)c4)CC3)[C@@H]1CC2
  IC50: 760 nM

## CCCCCCCn1c2c(c(=N)c3c1CCC3)CCCC2
  IC50: 100 nM

## CN(C)c1ccc(-c2csc(C(=O)NCC3CCN(CC4CCCCC4)C3)c2)cc1 (configuration not stated)
  IC50: 1140 nM

## O=C(Nc1cccc(-c2ccc(-c3nc4ccc(C(F)(F)F)cc4[nH]3)s2)c1)c1ccncc1
  IC50: 680 nM

## COc1ccc(CCNCc2cc3c(C(C)(C)C)nn(-c4ccc(Cl)cc4)c3[nH]c2=O)cc1OC
  IC50: 150 nM

## Cc1cc2nc(-c3ccc(/C=C/C(=O)NCCCc4ccccc4)cc3)[nH]c2cc1C
  IC50: 960 nM

## CCc1cn2c3c(cc(C(=O)N[C@@H](Cc4ccccc4)[C@H](O)CNCc4ccccc4C)cc13)N(C)S(=O)(=O)CC2
  IC50: 270 nM

## CC[C@H](C)CNC(=O)c1cncc(-c2ccc(CN3CCC(N4CCCC4)CC3)cc2)c1
  IC50: 970 nM

## CC[C@H]1CN(Cc2cccc(O)c2)CC[C@H]1CCCc1ccnc2ccc(O)cc12
  IC50: 530 nM

## Cc1ccc(Cc2cnc(NCCSCc3ccc(CN(C)C)s3)[nH]c2=O)cn1
  IC50: 860 nM

## CCN(CCCN1CCCCC1)c1cc(C)nc(Nc2ccc(C)cc2C)n1
  IC50: 350 nM

## O=C(C=Cc1ccc(Cl)c(Cl)c1)NCCCCCN1CCC(CCCNS(=O)(=O)c2ccc(F)cc2)CC1
  IC50: 1020 nM

## FC(F)c1nc2ccccc2n1-c1nc(N2CCOCC2)nc(N2CCOCC2)n1
  IC50: 760 nM

## CCCCNC(=O)c1cc(CNC2CCCCC2)ccc1-c1cccc(CNCc2ccc(-c3ccccc3)cc2)c1
  IC50: 530 nM

## O=C(Nc1ccc(Cn2ncc(N3CCCNCC3)c(Cl)c2=O)cc1)Nc1cc(Cl)cc(Cl)c1
  IC50: 870 nM

## Cc1cc(-c2cc3nc4c(c(=O)n3[nH]2)CCCC4)c(C)o1
  IC50: 820 nM

## COc1cc(OC)c2c(c1Cl)O[C@]1(C2=O)C(=O)C(Cc2ccccc2)(Cc2ccccc2)C(=O)C[C@H]1C
  IC50: 970 nM

## N#Cc1cccc(C(=O)Nc2cccc(-c3ccc(CN4CCC(O)CC4)cc3)c2)c1
  IC50: 1300 nM

## CN(CCCN(C)c1cc(NC(=O)c2ccc(F)cc2)ccn1)Cc1cccc(O)c1
  IC50: 1210 nM

## Cc1cccc(CCCNC(=O)CN(c2cccc(C(F)(F)F)c2)S(=O)(=O)c2ccc(C(F)(F)F)cc2)c1
  IC50: 680 nM

## CC(CNCc1cn(Cc2cc(Br)cc(Br)c2)c2ccccc12)CNc1cc(=O)c2ccccc2[nH]1 (configuration not stated)
  IC50: 460 nM

## CCc1ccc(NC(=O)c2cccc(CN3CCCN(CC4CCCCC4)CC3)c2)cc1
  IC50: 950 nM

## CCCCCCCN1CC[C@H](NC(=O)Nc2ccnc3ccc(OC)cc23)[C@H](C(=O)OCC)C1
  IC50: 430 nM

## Cc1csc(NC(=O)c2cn(-c3ccccc3)nc2-c2cccs2)n1
  IC50: 910 nM

## CC(C)=CC1C(C(=O)n2c(N)nc3ccccc32)C1(C)C (configuration not stated)
  IC50: 190 nM

## CCOC(=O)c1sc(C(C)Nc2ccccc2)nc1-c1ccccc1 (configuration not stated)
  IC50: 330 nM

## COc1cc(NC(=O)/C=C/c2ccccc2OC(F)(F)F)cc(OCCN2CCN(CCN3CCOCC3)CC2)c1
  IC50: 160 nM

## O=C(Nc1ccc2ccccc2c1)c1ccc(CN2CCC(Cc3ccccc3)CC2)cc1
  IC50: 880 nM

## Cc1[nH]c(C)c(-c2ccc(Oc3cccc(Cl)c3)cc2)c(=O)c1Cl
  IC50: 20 nM

## O=C1CCCN1CCCNCc1ccc(-c2ccc(-c3nc4ccc(C(F)(F)F)cc4[nH]3)s2)cc1
  IC50: 380 nM

## CN(C)CCN(C)Cc1ccc(-c2ccc3c(Nc4ccc(F)cc4Cl)ccnc3c2)o1
  IC50: 120 nM

## O=C(NC1CCC1)C1CCN(C(c2ccc(Cl)cc2)c2ccc(Cl)cc2)CC1
  IC50: 560 nM

## Cc1ccc(-c2ccc3c(c2)C=C(C(=O)NC2CCN(CCNC(=O)c4cccs4)CC2)CCC3)cc1
  IC50: 230 nM

## Oc1ccc(CNCCCCCCNCCc2ccc(Cl)cc2)cc1O
  IC50: 990 nM

## Cc1noc(C)c1-c1ccc2c(Nc3ccccc3C(C)(C)C)c(C(=O)NCc3ccc(C(F)(F)F)cc3)cnc2c1
  IC50: 760 nM

## C=CCOc1ccccc1CNCC(O)c1cccc(C(F)(F)F)c1 (configuration not stated)
  IC50: 840 nM

## c1ccc(CN2CCN(c3cc(-c4cncc(-c5ccccc5)c4)nc(-c4ccccc4)n3)CC2)cc1
  IC50: 1040 nM

## CN(C)c1ccc(CN2CCCCC(NC(=O)c3cc(-c4ccccc4Cl)cs3)C2)cc1 (configuration not stated)
  IC50: 1060 nM

## CN1CCN(Cc2nc(-c3ccc4c(Nc5ccc(Oc6ccccc6)cc5)ccnc4c3)cs2)CC1
  IC50: 310 nM

## CCCCN(CCCC)CCCCNc1c2ccccc2nc2ccccc12
  IC50: 150 nM

## CN(CCN)Cc1cccc(-c2cccc(-c3nc4ccc(F)cc4[nH]3)c2)c1
  IC50: 790 nM

## CC(C)CCNC(=O)C1Cc2c([nH]c3cc(Cl)ccc23)C2(CCN(CCc3ccccc3)CC2)N1 (configuration not stated)
  IC50: 690 nM

## CCNc1cc(C(=O)N[C@@H](Cc2ccccc2)[C@H](O)CNC(CC)c2cccc(Cl)c2)cc(N2CCCC2=O)c1 (some centres not stated)
  IC50: 30 nM

## NCc1cccc(-c2cccc(CN(C(=O)Nc3ccccc3)C3CCN(Cc4ccccc4)CC3)c2)c1
  IC50: 830 nM

## Cc1cc(N2CCCC2)nc(Nc2ccc(NC(=O)c3ccccc3)cc2)n1
  IC50: 980 nM

## Cc1[nH]c(C)c(-c2csc3ccccc23)c(=O)c1Cl
  IC50: 1020 nM

## O=C(/C=C/c1cccc2ccccc12)NC1CCC(CN2CCC(c3c[nH]c4ccccc34)CC2)CC1 (configuration not stated)
  IC50: 740 nM and 670 nM

## Cc1ccc2c(c1)C1(CC(=O)N(CCc3scnc3C)C1=O)C(=O)N2Cc1ccccc1 (configuration not stated)
  IC50: 1250 nM

## COc1cccc(CNCC(C)(C)c2nc(-c3ccc(Cl)c(O)c3)c(-c3ccncc3)[nH]2)c1
  IC50: 690 nM

## COc1ccc2nccc(N3C[C@H]4C[C@@H]3CN4CCNCc3ccc4c(n3)NC(=O)CS4)c2n1
  IC50: 970 nM

## Cc1cc2c(cc1C(F)(F)F)N(C(=O)Nc1cc(C(=O)NC3CCN(Cc4ccccc4)C3)cc(C(F)(F)F)c1)CC2 (configuration not stated)
  IC50: 340 nM

## O=C(NCc1ccc(F)cc1)Nc1ccc(-c2cccc(-c3nc4ccc(F)cc4[nH]3)c2)cc1
  IC50: 1120 nM

## CC(C)Sc1nc(-c2ccccc2)nc2c1COC(C)(C)C2
  IC50: 860 nM

## CC(C)CNCc1cccc(-c2cccc(CN(CCN(C)C)C(=O)NCCc3ccccc3)c2)c1
  IC50: 690 nM

## CN(C)CCN(C)Cc1ccc(-c2cccc(NC(=O)c3ccc(Cl)cc3)c2)cc1
  IC50: 560 nM

## Cc1cnc(CS(=O)c2nc3ccc(C(F)(F)F)cc3[nH]2)cc1OCc1ccccc1 (configuration not stated)
  IC50: 740 nM

## O=C(O[C@H]1CN[C@H](C#Cc2cc3c(Nc4ccc(OCc5cccc(F)c5)c(Cl)c4)ncnc3s2)C1)N1CCCC1
  IC50: 710 nM

## O=C(Nc1ccc(Cn2nc(Cl)c(N3CCCNCC3)cc2=O)cc1)Nc1ccc(-c2ccccc2)cc1
  IC50: 840 nM
